Assay results published in patent US20260216057A1, “PHARMACEUTICAL COMPOSITIONS FOR HERPES VIRUS” (priority 2022, published 2026).
Where two headings read alike, the source gives them in different places.

Experiments:
HSV-2 G strain = assay: HSV-2 antiviral assay, cytopathic effect (CPE) inhibition in vero cells; assay type: cell-based
Description: (§1) Cytopathic Effect (CPE) Inhibition Assay
(§2) Cell culture—vero cells were cultured in Dulbecco's Modified Eagle Medium (DMEM) supplemented with 10% fetal bovine serum and 100 units/mL penicillin and streptomycin. The cells were passaged 2-3 times per week to maintain sub-confluent densities.
(§3) HSV-2 antiviral assay—vero cells were seeded into 96-well plates at a density of 1.0×10^4 cells per well and allowed to attach overnight. Following attachment, the media was replaced with 50 μL of infection medium (DMEM supplemented with 2% fetal bovine serum and 100 units/mL penicillin and streptomycin). A Tecan D300e digital dispenser was then used to add compounds to the culture using an 8-point 3-fold serial dilution format. The DMSO concentration was normalized to 0.5% for all treatments. Following compound addition, 50 μL of infection medium containing 160 TCID50 HSV-2 G strain was added to the cells and incubated at 37° C. for 5 days. After the incubation, 10 μL/well of WST-8 chromogenic reagent was added and the plates incubated at 37° C. for 3 hours. Following the incubation, cell viability was quantified by measuring the absorbance at 460 nm and 620 nm using a Tecan Infinite M1000 Pro plate reader.
(§4) Vero cells were cultured in Dulbecco's Modified Eagle Medium (DMEM) supplemented with 10% foetal bovine serum and 100 units/mL penicillin and streptomycin. The cells were passaged 2-3 times per week to maintain sub-confluent densities.
as §3, with “Vero” for “HSV-2 antiviral assay—vero”, “foetal” for “fetal”

HSV-1 = HSV-1 antiviral assay, cytopathic effect (CPE) inhibition in vero cells; assay type: cell-based; settings: 4 days, read-out: in vitro EC50 against HSV-1
Description: as §1, §2
HSV-1 antiviral assay—vero cells were seeded into 96-well plates at a density of 2.5×10^3 cells per well and allowed to attach overnight. Following attachment, the media was replaced with 50 μL of infection medium (DMEM supplemented with 2% fetal bovine serum and 100 units/mL penicillin and streptomycin). A Tecan D300e digital dispenser was then used to add compounds to the culture using an 8-point 3-fold serial dilution format. The DMSO concentration was normalized to 0.5% for all treatments. Following compound addition, 50 μL of infection medium containing 80 TCID50 HSV-1 was added to the cells and incubated at 37° C. for 4 days. After the incubation, the plates were equilibrated to room temperature, the media was removed, and 60 μL of a 1:1 dilution of Cell titer glow and phosphate buffered saline was added to the cells. Following a 5-minute incubation, cell viability was quantified by measuring luminance using a Tecan Infinite M1000 Pro plate reader.
as §4
Vero cells were seeded into 96-well plates at a density of 2.5×10^3 cells per well and allowed to attach overnight. Following attachment, the media was replaced with 50 μL of infection medium (DMEM supplemented with 2% foetal bovine serum and 100 units/mL penicillin and streptomycin). A Tecan D300e digital dispenser was then used to add compounds to the culture using an 8-point 3-fold serial dilution format. The DMSO concentration was normalized to 0.5% for all treatments. […] Following a 5-minute incubation, cell viability was quantified by measuring luminance using a Tecan Infinite M1000 Pro plate reader.

[1] = Injection site observation in pritelivir PK studies (Examples 1-4); assay type: in vivo, rat, monkey, dog; settings: SC pritelivir depot formulations, Examples 1-4, 3 species
Description: Male Sprague Dawley (SD) rats with ~300 g body weight (ages 6-8 weeks) were used for the pharmacokinetic study. The animals had free access to food and water. The pritelivir suspensions described above were administered via sub-cutaneous injection to each animal group (n=3) with a dosing volume of 3.33 mL/kg to achieve 33.33 mg/kg and 166.67 mg/kg doses.
Male SD rats with 230-250 g body weight, ages 6-8 weeks were used for the rat PK study. The animals had free access to food and water. The prepared suspension was administered via subcutaneous injection to each animal group (n=3) with a dosing volume of 3.33 mL/kg to achieve a 10 mg/kg dose.
Male non-naïve Cyno Monkeys with −5 kg body weight was used for the monkey PK study. The animals had free access to food and water. The prepared suspension was administered via subcutaneous injection to each animal group (n=3) with a dosing volume of 3.33 mL/kg to achieve a 10 mg/kg dose.
Male non-naïve beagles were used for the dog PK study. The animals had free access to food and water. The prepared suspension was administered via subcutaneous injection to each animal group (n=3) with a dosing volume of 2 mL/kg to achieve a 10 mg/kg dose.

plasma protein = settings: cited from earlier work
recurrent genital HSV-2 = settings: 28 days daily oral dosing; pritelivir 100 mg (after 400 mg loading dose), valacyclovir 500 mg; cited from earlier work
[2] = Human alphaherpesvirus 2, Vero, 120 h, CPE assay, vero cells, 5 days, read-out: in vitro EC50 against HSV-2
[3] = Human alphaherpesvirus 1, Vero, 96 h

Structure (SMILES) | EC50 (HSV-2 G strain; CPE assay, vero cells, 5 days, read-out: in vitro EC50 against HSV-2) | EC50 (HSV-2 G strain; [2]) | EC50 (HSV-2 G strain; Human alphaherpesvirus 2, Vero, Example 9, n=35, read-out: EC50 in the HSV-2 antiviral assay) | EC50 (HSV-1) | EC50 (HSV-1; [3]) | adverse reactions at the injection sites [1] | protein binding (plasma protein) | HSV shedding, % of genital swabs analysed (recurrent genital HSV-2)
Cc1nc(N2CCCN(c3ccc(-c4cc(F)ccc4F)cc3)C2=O)sc1S(N)(=O)=O [Compound 1, 2-(3-(2′,5′-difluoro-[1,1′-biphenyl]-4-yl)-2-oxotetrahydropyrimidin-1(2H)-yl)-4-methylthiazole-5-sulfonamide] | 13 nM | ~11 nM | 11 nM | 15 nM | ~19 nM | – | – | –
Cc1nc(N(C)C(=O)Cc2ccc(-c3ccccn3)cc2)sc1S(N)(=O)=O [pritelivir, N-methyl-N-(4-methyl-5-sulfamoyl-1,3-thiazol-2-yl)-2-[4-(pyridin-2-yl)phenyl]acetamide] | – | 55 nM | – | – | 47 nM | no adverse reactions observed | 97-98% | 2.4%
